How the values were obtained:
HlyU [1] = biological target: T1, HlyU (Vibrio vulnificus, UniProt A0A3Q0L222); assay: Vibrio reporter strain, pKK1305 (PrtxA-lux, activated by HlyU) in wild-type V. vulnificus; format: cell-based; conditions: Compound Group I; HlyU activity (RLU, DMSO = 100%), 30° C.
T1 sequence (A0A3Q0L222 1-98): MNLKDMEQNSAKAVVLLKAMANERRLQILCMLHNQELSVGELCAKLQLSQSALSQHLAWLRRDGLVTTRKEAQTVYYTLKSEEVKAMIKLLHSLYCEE
Method: Meanwhile, verification experiments using the Vibrio reporter strain were also conducted so as to exclude false positive results. It was identified that the effect of the compound was not limited only to E. coli using Vibrio vulnificus, each having the reporter plasmid (pZW1608) inhibited by HlyU, which was used for the E. coli reporter strain, and the plasmid (pKK1305) in which the promoter of the rtxA gene activated by HlyU is cloned in front of the bioluminescence operon.
The constructed wild-type Vibrio reporter strain was treated with sample compounds and cultured at 30° C., and cell growth and luminescence were measured in the same manner as the E. coli strain screening (FIG. 3 and FIG. 4).
In order to identify whether or not a specific structure of CM2660 has a significant effect on HlyU inhibition, the effect of HlyU inhibition by the compound CM2660 and derivatives thereof, “Compound Group I” (FIG. 5) was verified. For the purpose, the pKK1305 plasmid prepared in Example 1 was conjugated to the wild-type Vibrio vulnificus, and the Vibrio reporter strain (pKK1305 in wild-type V. vulnificus) thus produced was treated with various concentrations of the derivative compounds.
(§1) While culturing at 30° C., the growth of the reporter strain and the degree of bioluminescence thereof were measured in the same manner as in Example 1, and the RLU was calculated. The RLU of the DMSO-treated control group was expressed as 100% HlyU activity. HlyU activity was plotted according to the concentration of the derivative compound, and EC50 (half maximal effective concentration) was calculated using GraphPad Prism 7.0 (GraphPad Software, San Diego, Calif.) (FIG. 6, Table 2).

HlyU [2] = assay: Amount of HlyU protein in cells of Vibrio vulnificus; format: cell-based; conditions: various concentrations, added at A600=0.2, harvested at A600=0.5, vs 2% DMSO
Method: In order to determine the mechanism by which the HlyU inhibitor CM2660 inhibited the activity of HlyU, Vibrio vulnificus was cultured at 30° C. and treated with various concentrations of CM2660 at A600=0.2. […] Then, the cell solution was centrifuged at A600=0.5, indicating the time when the intracellular amount of HlyU was maximized, and only the cell portion (pellet) was recovered. The recovered cells were chemically lysed to determine the amount of HlyU in each sample (FIG. 9).

Vibrio vulnificus [3] = assay: Hemolytic activity of Vibrio vulnificus against erythrocytes; format: cell-based; conditions: culture supernatant at A600=1.0, different concentrations
Method: Meanwhile, the effect of CM2660 on the hemolytic activity against erythrocytes of Vibrio vulnificus was investigated. For this purpose, Vibrio vulnificus was cultured at 30° C. and treated with CM2660 at different concentrations at A600=0.2. […] The filtered supernatant was concentrated and mixed with erythrocytes diluted to 10% in PBS and cultured at 37° C. Hemolytic activity against erythrocytes was quantified by measuring absorbance at 540 nm (A540). A sample completely dissolved by treatment with 5% Triton X-100 instead of the supernatant was used as a positive control group and a sample using LBS medium was used as a negative control group.
Hemolytic activity was calculated using the following Equation 2, and is shown as a percentage (%) in FIG. 14.

HlyU [4] = biological target: T1, HlyU; assay: Mass spectrometry / X-ray crystallography of HlyU protein treated with CM2660; format: binding
Method: In order to more accurately identify the HlyU inhibition mechanism of CM2660, the crystal structure of CM2660-treated HlyU protein was detected by X-ray crystallography and compared with that of the HlyU protein not treated with CM2660 (FIG. 17, FIG. 18).
In order to identify this in more detail, samples of HlyU protein treated with CM2660 were analyzed using mass spectrometry.

Vibrio vulnificus [5] = assay: Growth of Vibrio vulnificus; format: cell-based; conditions: 20-500 μM CM2660
Method: as §1
Therefore, Vibrio vulnificus was treated with various concentrations of CM2660, and the growth of Vibrio vulnificus was observed (FIG. 20).

INT-407 cells = assay: In-vitro cytotoxicity, LDH release assay; format: cell-based, human; conditions: 1 to 500 μM, 3 hours, 5% Triton-X 100 = 100%
Method: In order to investigate the in-vitro cytotoxicity of CM2660, human epithelial cells, INT-407 cells were treated with Vibrio vulnificus (control) of MOI 10, and 1 to 500 μM of CM2660 or DMSO. After 3 hours, LDH release assay was performed and cytotoxicity was measured (FIG. 21). […] Cytotoxicity (%) was calculated with respect to the cytotoxicity obtained through treatment of 5% Triton-X 100 as 100%.

Vibrio vulnificus [6] = assay: Mouse infection with Vibrio vulnificus, survival; format: in vivo; conditions: 1.4 mg/kg mixed with bacteria, subcutaneous, ICR female mice, vs DMSO
Method: In order to determine whether or not CM2660 also decreases the virulence of Vibrio vulnificus in vivo using 7-week-old ICR female mice, Vibrio vulnificus cultured at A600=0.5 at 30° C. was prepared. This was mixed with DMSO (10%) or CM2660 (1.4 mg/kg of mouse body weight) and the resulting mixture was subcutaneously injected into the back of mice anesthetized with isoflurane. In addition, only CM2660 was injected subcutaneously in order to determine the in-vivo toxicity of CM2660 (FIG. 22). FIG. 22 is a graph showing the results of observation of the expression of in-vivo toxicity of Vibrio vulnificus after injecting CM2660 into mice.

Vibrio parahaemolyticus = assay: Cytotoxicity of Vibrio parahaemolyticus; format: cell-based; conditions: CM2660 at different concentrations
[7] = system: exsA, va11668, vopQ, vopS and vopR; assay: qRT-PCR of exsA and T3SS genes in Vibrio alginolyticus; format: cell-based; conditions: 20 μM, A600=0.5, vs 2% DMSO
Method: Vibrio alginolyticus is also a pathogenic Vibrio bacterium that has T3SS and is cytotoxic, similar to Vibrio parahaemolyticus. In order to determine the toxin inhibition effect of CM2660 in Vibrio alginolyticus, Vibrio alginolyticus was cultured in TSB (tryptic soy broth) medium supplemented with 1% NaCl.

hlyA and tlh = assay: qRT-PCR of hemolytic protein genes in Vibrio cholerae; conditions: 20 μM, A600=0.5, vs 2% DMSO
Vibrio cholerae = assay: Hemolytic activity of Vibrio cholerae supernatant on horse blood agar; conditions: 20 μM, 37° C., 24 hours
Method: Vibrio cholerae supernatant when treated with DMSO was dotted in horse blood agar medium and cultured at 37° C. for 24 hours.

With `O=C(C#Cc1ccccc1)Nc1scc2c1c(=O)oc1ccccc12` [CM2660, N-(4-oxo-4H-thieno[3,4-c]chromen-3-yl)-3-phenylprop-2-ynamide] the EC50 (HlyU [1]) was 30.9 µM, the “amount of HlyU in the cells” value (HlyU [2]) was “no significant difference” and the “hemolytic activity against erythrocytes” value (Vibrio vulnificus [3]) was “concentration-dependent decrease”. For the same compound, the “covalent binding to cysteine residue at position 30 of HlyU” value (HlyU [4]) was “covalently bound”, the “in-vitro growth of Vibrio vulnificus” value (Vibrio vulnificus [5]) was “no significant effect” and the “cytotoxicity to INT-407 cells” value (INT-407 cells) was “almost no cytotoxicity”. The “viability (survival) of mice infected with Vibrio vulnificus” value (Vibrio vulnificus [6]) was “significantly higher”, the “cytotoxicity of Vibrio parahaemolyticus” value (Vibrio parahaemolyticus) was “decrease in the cytotoxicity” and the “exsA mRNA level” value [7] was “significantly reduced”. The “va11668 mRNA level” value [7] was “significantly reduced”, the “vopQ mRNA level” value [7] was “significantly reduced” and the “vopR mRNA level” value [7] was “significantly reduced”. The “vopS mRNA level” value [7] was “significantly reduced”, the “hlyA mRNA level” value (hlyA and tlh) was “significantly reduced” and the “tlh mRNA level” value (hlyA and tlh) was “significantly reduced”. For the same compound, the “hemolytic activity of Vibrio cholerae (clear zone)” value (Vibrio cholerae) was “reduced”.

Source: patent US11510899B2, “RTX toxin production inhibitor and composition for treating symptom of vibrio infection by using same” (priority 2018, dated 2022)
